For test [1], the target named is muscarinic cholinergic receptor. The class given is binding, rat. Particulars: rat cerebral cortex, ^3 H-QNB 0.25 nM, 25° C., 120 minutes, pH 7.4.
For test [2] the target is unchanged. The experiment in a line: [^3 H]-Cis-methyldioxolane (^3 H-CD) Binding Assay (High Affinity). The settings on record: rat cerebral cortex, ^3 H-CD 1.0 nM, 25° C., 120 minutes, pH 7.4; high affinity agonist binding.

pKi: −log10 of the molar value. Structures can show the parent of a compound that is named as a salt. Where two headings read alike, the source gives them in different places.

For `CCCCCCCCNC(=O)O[C@@H]1CCN(CC#CC[N+](C)(C)C)C1=O` [(R)-N,N, N-Trimethyl-4-[3-[[(octylamino)carbonyl]oxy]-2-oxo-1-pyrrolidinyl]-2-butyn-1-aminium iodide], the pKi in test [1] was 6.30; in test [2] it was 6.31.
Turning to `CCCCCCCCOC(=O)O[C@@H]1CCN(CC#CC[N+](C)(C)C)C1=O` [(R)-N,N, N-Trimethyl-4-[3-[[(octyloxy)carbonyl]oxy]-2-oxo-1-pyrrolidinyl]-2-butyn-1-aminium iodide], the pKi was 6.70 in test [1] and 8.00 in test [2].
For the compound `CCCCCCCCNC(=O)O[C@@H]1CCN(CC#CCN(C)C)C1=O` [(R)-Octylcarbamic acid 1-[4-(dimethylamino)-2-butynyl]-2-oxo-2-pyrrolidinyl ester], the negative-log Ki (pKi) in test [1] was 4.49; in test [2] it was 5.84.
On to `CCCCCCCCNC(=O)O[C@@H]1CCN(CC#CCN2CCCC2)C1=O` [(R)-Octylcarbamic acid 2-oxo-1-[4-(1-pyrrolidinyl)-2-butynyl]-3-pyrrolidinyl ester], for which the negative logarithm of the Ki (pKi) in test [1] was 6.70; in test [2] it was 6.62.
Take `CC(C)C(=O)O[C@@H]1CCN(CC#CCN(C)C)C1=O` [(R)-Porpanoic acid 2-methyl-1-[4-(dimethylamino)-2-butynyl]-2-oxo-3-pyrrolidinyl ester]: the values for the pKi in test [1] and in test [2] were 3.15 and 4.59, respectively.
Regarding `CC(C)(C)[Si](C)(C)O[C@H]1CCN(CC#CCN2CCC2)C1=O` [(S)-1-[4-(1-Azetidinyl)-2-butynyl]-3-[[(1,1-dimethylethyl)-dimethylsilyl]oxy]-2-pyrrolidinone], the pKi is 5.24 in test [1] and 5.25 in test [2].
Consider `CS[C@H]1CCN(CC#CCN(C)C)C1=O` [(S)-1-[4-(Dimethylamino)-2-butynyl]-3-(methylthio)-2-pyrrolidinone], for which the negative logarithm of the Ki (pKi) was below 4.00 in test [1] and 5.19 in test [2].
As for `CN(C)CC#CCN1CC[C@H](O[Si](C)(C)C(C)(C)C)C1=O` [(S)-1-[4-(Dimethylamino)-2-butynyl]-3-[[(1,1-dimethylethyl)-dimethylsilyl]oxy]-2-pyrrolidinone], the figures for the pKi in test [1] and in test [2] were 4.84 and 4.74, respectively.
As to `CN(C)CC#CCN1CC[C@H](O)C1=O` [(S)-1-[4-(Dimethylamino)-2-butynyl]-3-hydroxy-2-pyrrolidinone], the results for the pKi in test [1] and in test [2] were 4.57 and 7.37, respectively.
As for `C[C@H]1CCN(CC#CCN(C)C)C1=O` [(S)-1-[4-(Dimethylamino)-2-butynyl]-3-methyl-2-pyrrolidinone], the pKi in test [1] is 4.45; in test [2] it was 6.17.
On the same counts, the results for `CCN(CC)CC#CCN1CC[C@H](O[Si](C)(C)C(C)(C)C)C1=O` [(S)-1-[4-(diethylamino)-2-butynyl]-3-[[(1,1-dimethylethyl)dimethylsily]oxy]-2-pyrrolidinone] are 5.12 and 4.81.
As for `CN(C)CC#CCN1CC[C@H](OC(=O)C(C)(C)C)C1=O` [(S)-2,2-Dimethylpropanoic acid 1-[4-(dimethylamino)-2-butynyl]-2-oxo-3-pyrrolidinyl ester], the pKi was 3.32 in test [1] and 4.41 in test [2].
Take `CC(C)(C)C(=O)O[C@H]1CCN(CC#CCN2CCCC2)C1=O` [(S)-2,2-Dimethylpropanoic acid 2-oxo-1-[4-(1-pyrrolidinyl)-2-butynyl]-3-pyrrolidinyl ester]: the pKi was 5.34 in test [1] and 6.43 in test [2].
As for `CC(C)C(=O)O[C@H]1CCN(CC#CCN2CCCC2)C1=O` [(S)-2-Methylpropanoic acid 2-oxo-1-[4-(1-pyrrolidinyl)-2-butynyl]-3-pyrrolidinyl ester], the values for the pKi in test [1] and in test [2] were 5.14 and 6.79, respectively.
For `CC(=O)O[C@H]1CCN(CC#CCN(C)CCO)C1=O` [(S)-3-(Acetyloxy)-1-[4-[2-(hydroxyethyl)methylamino]-2-butynyl]-2-pyrrolidinone], the negative-log Ki (pKi) was below 4.00 in test [1] and 4.79 in test [2].
Turning to `CC(=O)O[C@H]1CCN(CC#CCN(C)CCCCO)C1=O` [(S)-3-(Acetyloxy)-1-[4-[(4-hydroxybutyl)methylamino]-2-butynyl]-2-pyrrolidinone], the negative-log Ki (pKi) is below 4.00 in test [1] and 5.09 in test [2].
Taken in the same sequence, the figures for `CS[C@H]1CCN(CC#CCN2CCCC2)C1=O` [(S)-3-(Methylthio)-1-[4-(1-pyrrolidinyl)-2-butynyl]-2-pyrrolidinone] were 4.28 and 5.98.
With `N[C@H]1CCN(CC#CCN2CCCC2)C1=O` [(S)-3-Amino-1-[4-(1-pyrrolidinyl)-2-butynyl]-2-pyrrolidinone dihydrochloride], the negative-log Ki (pKi) in test [1] was 4.13; in test [2], 6.39.
With `CN(C)CC#CCN1CC[C@H](N)C1=O` [(S)-3-Amino-1-[4-(dimethylamino)-2-butynyl]-2-pyrrolidinone dihydrochloride], the negative logarithm of the Ki (pKi) in test [1] is below 4.00; in test [2] it was 5.59.
As to `[N-]=[N+]=N[C@H]1CCN(CC#CCN2CCCC2)C1=O` [(S)-3-Azido-1-[4-(1-pyrrolidinyl)-2-butynyl]-2-pyrrolidinone], the negative-log Ki (pKi) in test [1] was 5.50; in test [2] it was 6.80.
On to `CN(C)CC#CCN1CC[C@H](N=[N+]=[N-])C1=O` [(S)-3-Azido-1-[4-(dimethylamino)-2-butynyl]-2-pyrrolidinone], for which the pKi is below 4.00 in test [1] and 6.20 in test [2].
Take `O=C1[C@@H](O)CCN1CC#CCn1ccnc1` [(S)-3-Hydroxy-1-[4(1H-imidazol-1-yl)-2-butynyl]-2-pyrrolidinone]: the negative-log Ki (pKi) in test [1] is below 4.00; in test [2] it was 6.92.
For `O=C1[C@@H](O)CCN1CC#CCN1CCCC1` [(S)-3-Hydroxy-1-[4-(1-pyrrolidinyl)-2-butynyl]-2-pyrrolidinone], the values for the pKi in test [1] and in test [2] were 5.77 and 8.15, respectively.
Take `CN(CC#CCN1CC[C@H](O)C1=O)CCO` [(S)-3-Hydroxy-1-[4-[(2-hydroxyethyl)methylamino]-2-butynyl]-2-pyrrolidinone]: the figures for the negative logarithm of the Ki (pKi) in test [1] and in test [2] were below 4.00 and 5.74, respectively.
`CN(CC#CCN1CC[C@H](O)C1=O)CCCCO` [(S)-3-Hydroxy-1-[4-[(4-hydroxybutyl)methylamino]-2-butynyl]-2-pyrrolidinone]: the pKi is below 4.00 in test [1] and 5.89 in test [2].
On the same counts, the results for `CC(C)(C)[Si](C)(C)O[C@H]1CCN(CC#CCN2CCCC2)C1=O` [(S)-3-[[(1,1-Dimethylethyl)-dimethylsily]0xy]-1-[4-(1-pyrrolidinyl)-2-butynyl]-2-pyrrolidinone] are 5.57 and 5.52.
On to `CC(C)(C)[Si](C)(C)O[C@H]1CCN(CC#CCn2ccnc2)C1=O` [(S)-3-[[(1,1-Dimethylethyl)dimethylsilyl]oxy]-1-[4-(1H-imidazol-1-yl)-2-butynyl]-2-pyrrolidinone], for which the pKi in test [1] was below 4.00; in test [2], 4.61.
On to `CNC(=O)O[C@H]1CCN(CC#CCN2CCCC2)C1=O` [(S)-3-[[Methylamino)carbonyl]oxy]-1-[4-(1-pyrrolidinyl)-2-butynyl]-2-pyrrolidinone], for which the figures for the negative logarithm of the Ki (pKi) in test [1] and in test [2] were 3.36 and below 4.00, respectively.
As to `C[N+](C)(C)CC#CCN1CC[C@H](N=[N+]=[N-])C1=O` [(S)-4-(3-Azido-2-oxo-1-pyrrolidinyl)-N,N,N-trimethyl-2-butyn-1-aminium iodide], the negative-log Ki (pKi) in test [1] is 5.80; in test [2], 7.35.

By pKi is commonly meant −log10 of the Ki, conventionally taken in molar units. Lower therefore signals a high Ki.

For the origin of these results see patent US5637731A (priority 1996, dated 1997).
